{
  "source": "patent US4255183A",
  "about": "“Substituted phenyl urea and herbicides for use in paddy field” (Hokko Chemical Industry Co., Ltd., priority 1977, dated 1981)",
  "key": {"paddy rice": {"system": "paddy rice", "assay": "Test Example 1: pot test on selectivity, inhibition of paddy rice", "type": "in vivo", "settings": "dry weight 30 days after treatment", "procedure": "In a Wagner pot of 1/500 are, paddy field soil (alluvial soil) was placed and 50 seeds of Echinochloa crus-galli var. oryzicola and 30 seeds of paddy rice were seeded in the surface layer of said soil and the submerging depth was kept at about 1 cm. […] After 30 days from the treatment with the chemical, dry weights of Echinochloa crus-galli var. oryzicola and paddy rice were measured and the inhibition rate was calculated with reference to untreated area. [formula]\n(§1) The comparative chemicals used, i.e. DCMU and Linuron, were those commercially available, and the comparative chemicals A and B used were prepared according to the process for formulating the compound of this invention."}, "[1]": {"system": "Echinochloa crus-galli var. oryzicola", "assay": "Test Example 1: pot test on selectivity, inhibition of Echinochloa crus-galli var. oryzicola", "type": "in vivo", "settings": "dry weight 30 days after treatment; for inhibition at 750 g/ha / inhibition at 1500 g/ha / inhibition at 3000 g/ha / inhibition at 6000 g/ha / inhibition at 9000 g/ha: Echinochloa crus-galli, 720 h", "procedure": "In a Wagner pot of 1/500 are, paddy field soil (alluvial soil) was placed and 50 seeds of Echinochloa crus-galli var. oryzicola and 30 seeds of paddy rice were seeded in the surface layer of said soil and the submerging depth was kept at about 1 cm. When Echinochloa crus-galli var. oryzicola reached at the one leaf stage and 5-leaf stage, the emulsion of a predetermined concentration, prepared according to Example 4 was added dropwise. After 30 days from the treatment with the chemical, dry weights of Echinochloa crus-galli var. oryzicola and paddy rice were measured and the inhibition rate was calculated with reference to untreated area. [formula]\nas §1"}},
  "note": "Like-named read-outs stand apart in the source and are kept apart here.",
  "data": [
    {"smiles": "CC=CCOc1ccc(NC(=O)N(C)C)cc1", "note": "[Mixture of trans- and cis-forms 4:1]", "values": [
      {"measurement": "Inhibition (%) by treatment at 1-leaf stage, paddy rice", "setting": "paddy rice; 900 g/10 are, 1-leaf stage", "result": 1, "unit": "%"},
      {"measurement": "inhibition at 750 g/ha", "setting": "paddy rice; Oryza sativa, 720 h, 75 g/10 are, 1-leaf stage, read-out: Inhibition (%) by treatment at 1-leaf stage, paddy rice", "result": 0, "unit": "%"},
      {"measurement": "inhibition at 750 g/ha", "setting": "paddy rice; Oryza sativa, 720 h, 75 g/10 are, 5-leaf stage, read-out: Inhibition (%) by treatment at 5-leaf stage, paddy rice", "result": 0, "unit": "%"},
      {"measurement": "inhibition at 1500 g/ha", "setting": "paddy rice; Oryza sativa, 720 h, 150 g/10 are, 1-leaf stage, read-out: Inhibition (%) by treatment at 1-leaf stage, paddy rice", "result": 0, "unit": "%"},
      {"measurement": "inhibition at 1500 g/ha", "setting": "paddy rice; Oryza sativa, 720 h, 150 g/10 are, 5-leaf stage, read-out: Inhibition (%) by treatment at 5-leaf stage, paddy rice", "result": 0, "unit": "%"},
      {"measurement": "inhibition at 3000 g/ha", "setting": "paddy rice; Oryza sativa, 720 h, 300 g/10 are, 1-leaf stage, read-out: Inhibition (%) by treatment at 1-leaf stage, paddy rice", "result": 0, "unit": "%"},
      {"measurement": "inhibition at 3000 g/ha", "setting": "paddy rice; Oryza sativa, 720 h, 300 g/10 are, 5-leaf stage, read-out: Inhibition (%) by treatment at 5-leaf stage, paddy rice", "result": 0, "unit": "%"},
      {"measurement": "inhibition at 6000 g/ha", "setting": "paddy rice; Oryza sativa, 720 h, 600 g/10 are, 1-leaf stage, read-out: Inhibition (%) by treatment at 1-leaf stage, paddy rice", "result": 0, "unit": "%"},
      {"measurement": "inhibition at 6000 g/ha", "setting": "paddy rice; Oryza sativa, 720 h, 600 g/10 are, 5-leaf stage, read-out: Inhibition (%) by treatment at 5-leaf stage, paddy rice", "result": 0, "unit": "%"},
      {"measurement": "inhibition at 9000 g/ha", "setting": "paddy rice; Oryza sativa, 720 h, 900 g/10 are, 5-leaf stage, read-out: Inhibition (%) by treatment at 5-leaf stage, paddy rice", "result": 0, "unit": "%"},
      {"measurement": "inhibition at 750 g/ha", "setting": "[1]; 75 g/10 are, 1-leaf stage, read-out: Inhibition (%) by treatment at 1-leaf stage, E. crus-galli var. oryzicola", "result": 94, "unit": "%"},
      {"measurement": "inhibition at 750 g/ha", "setting": "[1]; 75 g/10 are, 5-leaf stage, read-out: Inhibition (%) by treatment at 5-leaf stage, E. crus-galli var. oryzicola", "result": 80, "unit": "%"},
      {"measurement": "inhibition at 1500 g/ha", "setting": "[1]; 150 g/10 are, 1-leaf stage, read-out: Inhibition (%) by treatment at 1-leaf stage, E. crus-galli var. oryzicola", "result": 100, "unit": "%"},
      {"measurement": "inhibition at 1500 g/ha", "setting": "[1]; 150 g/10 are, 5-leaf stage, read-out: Inhibition (%) by treatment at 5-leaf stage, E. crus-galli var. oryzicola", "result": 100, "unit": "%"},
      {"measurement": "inhibition at 3000 g/ha", "setting": "[1]; 300 g/10 are, 1-leaf stage, read-out: Inhibition (%) by treatment at 1-leaf stage, E. crus-galli var. oryzicola", "result": 100, "unit": "%"},
      {"measurement": "inhibition at 3000 g/ha", "setting": "[1]; 300 g/10 are, 5-leaf stage, read-out: Inhibition (%) by treatment at 5-leaf stage, E. crus-galli var. oryzicola", "result": 100, "unit": "%"},
      {"measurement": "inhibition at 6000 g/ha", "setting": "[1]; 600 g/10 are, 1-leaf stage, read-out: Inhibition (%) by treatment at 1-leaf stage, E. crus-galli var. oryzicola", "result": 100, "unit": "%"},
      {"measurement": "inhibition at 6000 g/ha", "setting": "[1]; 600 g/10 are, 5-leaf stage, read-out: Inhibition (%) by treatment at 5-leaf stage, E. crus-galli var. oryzicola", "result": 100, "unit": "%"},
      {"measurement": "inhibition at 9000 g/ha", "setting": "[1]; 900 g/10 are, 1-leaf stage, read-out: Inhibition (%) by treatment at 1-leaf stage, E. crus-galli var. oryzicola", "result": 100, "unit": "%"},
      {"measurement": "inhibition at 9000 g/ha", "setting": "[1]; 900 g/10 are, 5-leaf stage, read-out: Inhibition (%) by treatment at 5-leaf stage, E. crus-galli var. oryzicola", "result": 100, "unit": "%"}
    ]},
    {"smiles": "CC=CCOc1ccc(NC(=O)N(C)C)cc1", "note": "[Mixture of trans- and cis-forms 1:4]", "values": [
      {"measurement": "Inhibition (%) by treatment at 1-leaf stage, paddy rice", "setting": "paddy rice; 75 g/10 are, 1-leaf stage", "result": 0, "unit": "%"},
      {"measurement": "Inhibition (%) by treatment at 5-leaf stage, paddy rice", "setting": "paddy rice; 75 g/10 are, 5-leaf stage", "result": 0, "unit": "%"},
      {"measurement": "Inhibition (%) by treatment at 1-leaf stage, paddy rice", "setting": "paddy rice; 150 g/10 are, 1-leaf stage", "result": 0, "unit": "%"},
      {"measurement": "Inhibition (%) by treatment at 5-leaf stage, paddy rice", "setting": "paddy rice; 150 g/10 are, 5-leaf stage", "result": 0, "unit": "%"},
      {"measurement": "Inhibition (%) by treatment at 1-leaf stage, paddy rice", "setting": "paddy rice; 300 g/10 are, 1-leaf stage", "result": 0, "unit": "%"},
      {"measurement": "Inhibition (%) by treatment at 5-leaf stage, paddy rice", "setting": "paddy rice; 300 g/10 are, 5-leaf stage", "result": 0, "unit": "%"},
      {"measurement": "Inhibition (%) by treatment at 1-leaf stage, paddy rice", "setting": "paddy rice; 600 g/10 are, 1-leaf stage", "result": 0, "unit": "%"},
      {"measurement": "Inhibition (%) by treatment at 5-leaf stage, paddy rice", "setting": "paddy rice; 600 g/10 are, 5-leaf stage", "result": 0, "unit": "%"},
      {"measurement": "Inhibition (%) by treatment at 1-leaf stage, paddy rice", "setting": "paddy rice; 900 g/10 are, 1-leaf stage", "result": 4, "unit": "%"},
      {"measurement": "Inhibition (%) by treatment at 5-leaf stage, paddy rice", "setting": "paddy rice; 900 g/10 are, 5-leaf stage", "result": 0, "unit": "%"},
      {"measurement": "Inhibition (%) by treatment at 1-leaf stage, E. crus-galli var. oryzicola", "setting": "[1]; 75 g/10 are, 1-leaf stage", "result": 93, "unit": "%"},
      {"measurement": "Inhibition (%) by treatment at 5-leaf stage, E. crus-galli var. oryzicola", "setting": "[1]; 75 g/10 are, 5-leaf stage", "result": 84, "unit": "%"},
      {"measurement": "Inhibition (%) by treatment at 1-leaf stage, E. crus-galli var. oryzicola", "setting": "[1]; 150 g/10 are, 1-leaf stage", "result": 100, "unit": "%"},
      {"measurement": "Inhibition (%) by treatment at 5-leaf stage, E. crus-galli var. oryzicola", "setting": "[1]; 150 g/10 are, 5-leaf stage", "result": 100, "unit": "%"},
      {"measurement": "Inhibition (%) by treatment at 1-leaf stage, E. crus-galli var. oryzicola", "setting": "[1]; 300 g/10 are, 1-leaf stage", "result": 100, "unit": "%"},
      {"measurement": "Inhibition (%) by treatment at 5-leaf stage, E. crus-galli var. oryzicola", "setting": "[1]; 300 g/10 are, 5-leaf stage", "result": 100, "unit": "%"},
      {"measurement": "Inhibition (%) by treatment at 1-leaf stage, E. crus-galli var. oryzicola", "setting": "[1]; 600 g/10 are, 1-leaf stage", "result": 100, "unit": "%"},
      {"measurement": "Inhibition (%) by treatment at 5-leaf stage, E. crus-galli var. oryzicola", "setting": "[1]; 600 g/10 are, 5-leaf stage", "result": 100, "unit": "%"},
      {"measurement": "Inhibition (%) by treatment at 1-leaf stage, E. crus-galli var. oryzicola", "setting": "[1]; 900 g/10 are, 1-leaf stage", "result": 100, "unit": "%"},
      {"measurement": "Inhibition (%) by treatment at 5-leaf stage, E. crus-galli var. oryzicola", "setting": "[1]; 900 g/10 are, 5-leaf stage", "result": 100, "unit": "%"}
    ]}
  ]
}
